Paper PMC11219871, “Epigenetic-based differentiation therapy for Acute Myeloid Leukemia” (Nature Communications, 2024)
pIC50: −log10 of the molar value. In brackets after ≈: the same amount, converted by molar mass.

How the values were obtained:
BRPF3 = target: T1, BRPF3 (Homo sapiens, UniProt Q9ULD4); test: Epigenetic panel (BPS Bioscience); format: binding
T1 construct: purchased BPS Bioscience; Eurofins (HDAC4, 5, 7-11)
Description: (§1) The selectivity of CM-444 and CM-1758 against other epigenetic targets, including histone demethylase (JMJD2A, JMJD2B, JMJD2C, JMJD2D, JMJD2E, JMJD3, JMJD1A, LSD1, Jarid1A, Jarid1B, Jarid1C, FBXL10, FBXL11, JHDM1D, JMJD1B, PHF8, LSD2 and UTX); histone acetyltransferases (GCN5, P300); histone methyltransferases (G9a, GLP, MLL1, SET7/9, SUV39H1, SUV39H2, PRMT1, PRMT3, PRMT4, PRMT5, PRMT6, PRMT8, PRMT9, NSD1, NSD2, EZH1, EZH2, SETDB1, SETD2, SET8, SUV4-20H1, SMYD2, SMYD3, DOT1L, EZH2 (A677G), EZH2 (A677G), EZH2 (A738T), EZH2 (Y641S), EZH2 (P132S), EZH2 (Y641C), EZH2 (Y641F), EZH2 (Y641H), EZH2 (Y641N)); bromodomains (ATAD2B, ATAD2A, BRD1, BRD9, BPTF/FALZ, CeCR2, BRPF3, BRD3 (BD1 + BD2), BAZ2B, WDR9, TAF1 (BD2), TAF1L (BD2), TAF1L (BD1 + BD2), BRD2 (BD1), BRD2 (BD2), BRD2 (BD1 + BD2), BRD3 (BD1), BRD3 (BD2), BRD4 (BD1), BRD4 (BD2), BRD4 (BD1 + BD2), BRDT (BD1), BRDT (BD1 + BD2), CREBBP, SMARCA2A, SMARCA4/BRG1); DNA methyltranferases (DNMT1, DNMT3A/3L and DNMT3B/3L), and sirtuin histone deacetylases (SIRT1, SIRT2, SIRT3, SIRT5 and SIRT6), were determined by BPS Bioscience (http://www.bpsbioscience.com/index.ph). Binding experiments were performed in duplicate at a concentration of 10 μM.

CeCR2 = target: T2, CeCR2 (Homo sapiens, UniProt Q9BXF3); test: Epigenetic panel (BPS Bioscience); format: binding
T2 construct: purchased BPS Bioscience (contracted assay service)
Description: as §1

TAF1L (BD2) = target: T3, TAF1L (BD2) (Homo sapiens, UniProt Q8IZX4); test: Epigenetic panel (BPS Bioscience); format: binding
T3 construct: purchased BPS Bioscience; Eurofins (HDAC4, 5, 7-11)
Description: as §1

SMARCA2A = target: T4, SMARCA2A (Homo sapiens, UniProt P51531); test: Epigenetic panel (BPS Bioscience); format: binding
T4 construct: purchased BPS Bioscience; Eurofins (HDAC4, 5, 7-11)
Description: as §1

BRD2 (BD2) = target: T5, BRD2 (BD2) (Homo sapiens, UniProt P25440); test: Epigenetic panel (BPS Bioscience); format: binding
T5 construct: purchased BPS Bioscience; Eurofins (HDAC4, 5, 7-11)
Description: as §1

BRD2 (BD1+BD2) = target: T6, BRD2 (BD1+BD2) (Homo sapiens, UniProt P25440); test: Epigenetic panel (BPS Bioscience); format: binding
T6 construct: purchased BPS Bioscience; Eurofins (HDAC4, 5, 7-11)
Description: as §1

BRDT (BD1) = target: T7, BRDT (BD1) (Homo sapiens, UniProt Q58F21); test: Epigenetic panel (BPS Bioscience); format: binding
T7 construct: purchased BPS Bioscience; Eurofins (HDAC4, 5, 7-11)
Description: as §1

CREBBP = target: T8, CREBBP (Homo sapiens, UniProt Q92793); test: Epigenetic panel (BPS Bioscience); format: binding
T8 construct: purchased BPS Bioscience; Eurofins (HDAC4, 5, 7-11)
Description: as §1

BRD9 = target: T9, BRD9 (Homo sapiens, UniProt Q9H8M2); test: Epigenetic panel (BPS Bioscience); format: binding
T9 construct: purchased BPS Bioscience (contracted assay service)
T9 sequence (Q9H8M2 1-597): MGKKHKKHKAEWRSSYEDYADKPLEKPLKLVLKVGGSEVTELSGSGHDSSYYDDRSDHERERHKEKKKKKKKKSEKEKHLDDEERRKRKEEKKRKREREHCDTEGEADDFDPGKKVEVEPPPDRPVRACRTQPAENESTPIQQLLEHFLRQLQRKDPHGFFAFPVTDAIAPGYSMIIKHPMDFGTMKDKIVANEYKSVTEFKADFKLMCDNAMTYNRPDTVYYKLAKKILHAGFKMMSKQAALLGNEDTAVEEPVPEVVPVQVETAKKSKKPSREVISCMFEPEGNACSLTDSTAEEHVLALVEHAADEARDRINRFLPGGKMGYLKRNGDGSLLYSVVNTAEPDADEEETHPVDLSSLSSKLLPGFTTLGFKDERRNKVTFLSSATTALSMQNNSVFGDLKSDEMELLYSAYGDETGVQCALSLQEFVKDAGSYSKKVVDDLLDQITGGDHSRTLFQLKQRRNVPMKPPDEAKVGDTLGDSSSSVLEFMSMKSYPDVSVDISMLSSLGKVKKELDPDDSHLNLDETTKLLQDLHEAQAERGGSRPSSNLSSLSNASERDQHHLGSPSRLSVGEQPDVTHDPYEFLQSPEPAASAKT
Description: as §1

[1] = tested on: HL-60, ML-2, MOLM-13 and MV4-11; test: γ-H2AX immunofluorescence (DNA damage); format: cell-based; settings: daily treatment 48 hours, four AML cell lines
Procedure: authors should analyze this e.g by gH2AX immunofluorescence staining.
As positive control, HL-60 cells irradiated with an acute dose of 30 J/m2 UV for 2 minutes were
(see Reviewer Figure 22).

Kinetic solubility = format: physicochemical; settings: PBS buffer, aqueous buffer, kinetic from dmso stock, pH 7.4, PBS
Procedure: This study was conducted at Wuxi (http://www.wuxi.com/). Stock solutions of test compounds (10 mM; 100% DMSO) and 490 μL of PBS buffer at pH = 7.4 were added in the lower chamber of Whatman’s Mini-Uniprep vials. After vortex mixing for ≥2 min, the vials were shaken at 800 rpm for 24 h and finally centrifuged at 1520 g for 20 min. The concentration of the filtrate was quantified by HPLC (calibration curve from 1.5624 μM to 200 μM). Amiodarone hydrochloride, carbamazepine and chloramphenicol were used as controls.

T2 sequence (Q9BXF3 whole entry): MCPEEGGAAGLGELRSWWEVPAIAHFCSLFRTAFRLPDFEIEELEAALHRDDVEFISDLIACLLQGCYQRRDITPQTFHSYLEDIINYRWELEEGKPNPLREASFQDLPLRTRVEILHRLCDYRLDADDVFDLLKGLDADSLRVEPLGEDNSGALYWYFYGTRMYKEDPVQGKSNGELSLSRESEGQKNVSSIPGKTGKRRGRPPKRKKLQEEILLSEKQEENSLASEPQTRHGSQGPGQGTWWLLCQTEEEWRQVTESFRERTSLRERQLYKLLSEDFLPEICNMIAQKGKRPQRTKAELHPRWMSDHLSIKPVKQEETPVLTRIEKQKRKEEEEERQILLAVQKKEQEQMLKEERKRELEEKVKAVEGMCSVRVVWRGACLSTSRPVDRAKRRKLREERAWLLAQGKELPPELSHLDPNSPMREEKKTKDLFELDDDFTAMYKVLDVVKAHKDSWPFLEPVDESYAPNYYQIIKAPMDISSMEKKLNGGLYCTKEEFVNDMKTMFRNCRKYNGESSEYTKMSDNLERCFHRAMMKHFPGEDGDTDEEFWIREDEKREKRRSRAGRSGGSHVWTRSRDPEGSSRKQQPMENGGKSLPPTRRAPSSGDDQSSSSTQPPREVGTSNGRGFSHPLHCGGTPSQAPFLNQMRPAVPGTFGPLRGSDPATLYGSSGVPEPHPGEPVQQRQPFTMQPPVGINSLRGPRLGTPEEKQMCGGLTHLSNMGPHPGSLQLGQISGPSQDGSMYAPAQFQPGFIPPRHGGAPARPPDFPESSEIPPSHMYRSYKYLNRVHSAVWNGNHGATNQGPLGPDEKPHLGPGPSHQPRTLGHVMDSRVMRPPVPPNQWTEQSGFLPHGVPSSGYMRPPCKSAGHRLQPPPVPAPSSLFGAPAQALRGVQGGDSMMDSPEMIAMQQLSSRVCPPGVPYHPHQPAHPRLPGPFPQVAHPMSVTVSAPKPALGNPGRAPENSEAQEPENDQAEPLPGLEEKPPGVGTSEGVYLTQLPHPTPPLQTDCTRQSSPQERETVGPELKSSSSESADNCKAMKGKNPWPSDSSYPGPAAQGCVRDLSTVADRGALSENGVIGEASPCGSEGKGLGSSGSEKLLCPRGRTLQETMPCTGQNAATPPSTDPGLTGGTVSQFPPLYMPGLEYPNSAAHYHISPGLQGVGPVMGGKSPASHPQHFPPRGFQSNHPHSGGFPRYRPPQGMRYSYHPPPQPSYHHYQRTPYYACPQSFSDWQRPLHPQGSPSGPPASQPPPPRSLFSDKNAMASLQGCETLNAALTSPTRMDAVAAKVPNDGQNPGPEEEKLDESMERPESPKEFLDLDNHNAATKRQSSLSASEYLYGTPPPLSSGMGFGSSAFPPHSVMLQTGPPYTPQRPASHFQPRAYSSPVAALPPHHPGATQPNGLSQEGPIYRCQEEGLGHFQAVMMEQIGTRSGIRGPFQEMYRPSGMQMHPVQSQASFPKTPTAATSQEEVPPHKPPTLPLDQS
T6 sequence (P25440 65-459 limits assumed): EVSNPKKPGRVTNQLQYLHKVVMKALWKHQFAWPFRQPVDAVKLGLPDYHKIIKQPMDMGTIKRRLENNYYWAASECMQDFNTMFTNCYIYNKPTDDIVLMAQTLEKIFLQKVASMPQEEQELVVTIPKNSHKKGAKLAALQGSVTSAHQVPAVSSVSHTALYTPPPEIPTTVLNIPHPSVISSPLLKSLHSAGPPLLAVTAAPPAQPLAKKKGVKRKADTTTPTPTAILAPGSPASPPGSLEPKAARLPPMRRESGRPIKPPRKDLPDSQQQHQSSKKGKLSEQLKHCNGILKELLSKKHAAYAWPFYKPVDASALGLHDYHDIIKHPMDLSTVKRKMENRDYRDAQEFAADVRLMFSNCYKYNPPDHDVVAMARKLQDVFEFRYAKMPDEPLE
T8 sequence (Q92793 whole entry): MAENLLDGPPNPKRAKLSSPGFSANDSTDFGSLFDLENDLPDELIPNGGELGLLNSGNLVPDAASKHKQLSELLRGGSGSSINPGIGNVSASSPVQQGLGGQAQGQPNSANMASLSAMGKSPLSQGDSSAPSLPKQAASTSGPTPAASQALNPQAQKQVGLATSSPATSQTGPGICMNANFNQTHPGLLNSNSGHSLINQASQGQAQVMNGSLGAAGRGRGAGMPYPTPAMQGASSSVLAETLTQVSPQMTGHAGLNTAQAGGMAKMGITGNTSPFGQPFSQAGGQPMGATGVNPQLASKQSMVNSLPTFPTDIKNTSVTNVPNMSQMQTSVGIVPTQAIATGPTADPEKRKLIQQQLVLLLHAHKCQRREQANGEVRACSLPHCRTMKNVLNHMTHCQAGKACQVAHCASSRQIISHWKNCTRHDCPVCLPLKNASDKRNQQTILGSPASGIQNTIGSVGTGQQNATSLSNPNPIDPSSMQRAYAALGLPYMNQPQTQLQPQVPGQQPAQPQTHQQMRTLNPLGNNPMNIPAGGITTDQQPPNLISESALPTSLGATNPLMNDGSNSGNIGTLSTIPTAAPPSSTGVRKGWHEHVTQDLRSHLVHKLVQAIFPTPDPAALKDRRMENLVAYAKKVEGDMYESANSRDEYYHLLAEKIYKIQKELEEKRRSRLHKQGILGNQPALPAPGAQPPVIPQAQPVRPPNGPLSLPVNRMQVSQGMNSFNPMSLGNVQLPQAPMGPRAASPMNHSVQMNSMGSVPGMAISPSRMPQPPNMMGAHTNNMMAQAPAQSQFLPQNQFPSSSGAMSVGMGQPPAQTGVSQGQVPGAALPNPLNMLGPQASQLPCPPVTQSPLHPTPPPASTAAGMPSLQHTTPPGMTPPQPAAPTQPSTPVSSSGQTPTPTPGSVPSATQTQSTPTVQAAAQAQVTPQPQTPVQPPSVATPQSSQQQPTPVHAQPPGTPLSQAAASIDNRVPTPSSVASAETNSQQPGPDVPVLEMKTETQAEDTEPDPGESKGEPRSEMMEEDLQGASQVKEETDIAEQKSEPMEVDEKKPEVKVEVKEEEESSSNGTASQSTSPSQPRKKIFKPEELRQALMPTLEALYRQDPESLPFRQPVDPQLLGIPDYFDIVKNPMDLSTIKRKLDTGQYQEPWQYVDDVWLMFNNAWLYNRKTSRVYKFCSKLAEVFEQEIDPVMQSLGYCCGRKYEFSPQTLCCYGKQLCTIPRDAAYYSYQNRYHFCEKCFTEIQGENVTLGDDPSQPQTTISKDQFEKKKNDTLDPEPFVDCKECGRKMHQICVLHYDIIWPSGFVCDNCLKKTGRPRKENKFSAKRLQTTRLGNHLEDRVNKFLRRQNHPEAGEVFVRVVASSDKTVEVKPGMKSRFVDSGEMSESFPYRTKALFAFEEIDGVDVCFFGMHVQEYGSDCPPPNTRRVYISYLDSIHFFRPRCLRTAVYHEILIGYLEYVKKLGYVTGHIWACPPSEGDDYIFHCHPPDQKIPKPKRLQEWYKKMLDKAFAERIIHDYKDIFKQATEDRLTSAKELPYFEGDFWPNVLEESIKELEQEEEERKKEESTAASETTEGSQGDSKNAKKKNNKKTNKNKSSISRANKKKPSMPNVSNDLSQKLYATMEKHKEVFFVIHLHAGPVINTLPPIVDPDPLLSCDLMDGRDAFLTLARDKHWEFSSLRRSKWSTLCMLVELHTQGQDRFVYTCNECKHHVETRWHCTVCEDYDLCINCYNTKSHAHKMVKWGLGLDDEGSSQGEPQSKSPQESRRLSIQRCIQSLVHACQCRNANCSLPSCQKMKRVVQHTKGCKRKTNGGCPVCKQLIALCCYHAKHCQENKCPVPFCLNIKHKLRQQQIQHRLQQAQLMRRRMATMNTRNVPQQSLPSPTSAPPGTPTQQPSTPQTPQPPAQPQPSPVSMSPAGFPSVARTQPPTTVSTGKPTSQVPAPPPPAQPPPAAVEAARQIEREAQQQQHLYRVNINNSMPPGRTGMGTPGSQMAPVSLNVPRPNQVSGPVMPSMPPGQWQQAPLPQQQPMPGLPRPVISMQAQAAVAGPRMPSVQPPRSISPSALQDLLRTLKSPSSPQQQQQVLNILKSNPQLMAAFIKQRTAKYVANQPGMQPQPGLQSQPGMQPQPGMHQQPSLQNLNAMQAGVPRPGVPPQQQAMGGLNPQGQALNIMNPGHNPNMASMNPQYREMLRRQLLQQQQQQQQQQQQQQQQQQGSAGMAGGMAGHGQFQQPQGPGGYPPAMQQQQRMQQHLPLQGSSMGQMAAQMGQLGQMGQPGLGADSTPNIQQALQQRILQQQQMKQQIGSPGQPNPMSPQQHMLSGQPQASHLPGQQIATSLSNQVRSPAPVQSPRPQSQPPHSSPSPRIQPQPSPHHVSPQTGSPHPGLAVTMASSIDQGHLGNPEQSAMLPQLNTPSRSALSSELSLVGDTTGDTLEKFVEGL
T3 sequence (Q8IZX4 1523-1654 limits assumed): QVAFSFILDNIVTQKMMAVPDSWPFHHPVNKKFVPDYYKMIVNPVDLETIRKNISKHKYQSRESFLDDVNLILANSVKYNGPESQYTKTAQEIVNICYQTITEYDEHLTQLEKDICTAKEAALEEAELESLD
T5 sequence (P25440 339-459 limits assumed): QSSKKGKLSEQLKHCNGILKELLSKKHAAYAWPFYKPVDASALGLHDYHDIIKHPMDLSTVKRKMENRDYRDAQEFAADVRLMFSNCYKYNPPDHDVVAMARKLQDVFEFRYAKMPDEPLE

COc1cc2nc(-c3ccc(C)o3)cc(NCC3CCN(c4ncc(C(=O)NO)cn4)CC3)c2cc1OC [CM-444, 2-[4-[[[6,7-dimethoxy-2-(5-methyl-2-furyl)-4-quinolyl]amino]methyl]-1-piperidyl]pyrimidine-5-carbohydroxamic acid]
inhibition at 10 µM (BRPF3): 0% | inhibition at 10 µM (CeCR2): 0% | inhibition at 10 µM (TAF1L (BD2)): 0% | inhibition at 10 µM (SMARCA2A): 0% | inhibition at 10 µM (BRD2 (BD2)): 0% | inhibition at 10 µM (BRD2 (BD1+BD2)): 21% | inhibition at 10 µM (BRDT (BD1)): 44% | inhibition at 10 µM (CREBBP): 0% | pIC50 (BRD9): 4.89 | inhibition at 10 µM (BRD9): 69% | DNA damage (γ-H2AX) [1]: do not induced DNA damage | solubility at 24 h (Kinetic solubility): 118 µg/mL (≈ 227 µM)

COc1cc2nc(-c3cc(C)oc3C)cc(NCC3CCN(c4ncc(C(=O)NO)cn4)CC3)c2cc1OC [CM-1758, 2-[4-[[[2-(2,5-dimethyl-3-furyl)-6,7-dimethoxy-4-quinolyl]amino]methyl] -1-piperidyl]pyrimidine-5-carbohydroxamic acid]
inhibition at 10 µM (BRPF3): 40% | pIC50 (CeCR2): 6.03 | inhibition at 10 µM (CeCR2): 72% | inhibition at 10 µM (TAF1L (BD2)): 0% | inhibition at 10 µM (SMARCA2A): 0% | inhibition at 10 µM (BRD2 (BD2)): 34% | inhibition at 10 µM (BRD2 (BD1+BD2)): 29% | inhibition at 10 µM (BRDT (BD1)): 23% | inhibition at 10 µM (CREBBP): 6% | pIC50 (BRD9): 4.44 | inhibition at 10 µM (BRD9): 75% | DNA damage (γ-H2AX) [1]: do not induced DNA damage | solubility at 24 h (Kinetic solubility): > 144 µg/mL
